From ChEMBL document CHEMBL1949499, “Nicotinic acids: liver-targeted SCD inhibitors with preclinical anti-diabetic efficacy” (Bioorg Med Chem Lett, 2011)
Active and inactive are the calls of the source. The rule behind the calls is not given here.

Experiments:
Stearoyl-CoA desaturase = molecular target: T1, Stearoyl-CoA desaturase (Homo sapiens, UniProt O00767); test: Inhibition of human SCD1 expressed in human HepG2 cells assessed as conversion of [14C]stearic acid to [14C]oleic acid; assay type: cell-based
T1 sequence (O00767 whole entry): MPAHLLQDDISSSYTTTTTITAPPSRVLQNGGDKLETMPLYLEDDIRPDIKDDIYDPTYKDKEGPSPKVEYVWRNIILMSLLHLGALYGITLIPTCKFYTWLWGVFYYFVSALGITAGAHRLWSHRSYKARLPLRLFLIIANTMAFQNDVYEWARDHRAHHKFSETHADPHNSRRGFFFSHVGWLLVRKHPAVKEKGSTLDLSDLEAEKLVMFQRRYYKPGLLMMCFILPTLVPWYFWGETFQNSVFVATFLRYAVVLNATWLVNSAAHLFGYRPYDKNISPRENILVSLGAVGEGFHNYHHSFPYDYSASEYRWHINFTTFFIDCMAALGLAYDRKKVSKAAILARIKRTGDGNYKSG

[1] = Ratio of drug uptake in left median liver lobe to harderian gland in C57/BL6 mouse at 10 mg/kg, po after 6 hrs; assay type: ADME, organism-based; parameters: dose 10 mg/kg, route oral; details: in vivo
Acyl-CoA desaturase 1 [2] = molecular target: T2, Acyl-CoA desaturase 1 (Rattus norvegicus, UniProt P07308); test: Inhibition of SCD1 in Sprague-Dawley rat hepatocytes assessed as conversion of [14C]oleic acid formation by HPLC analysis; assay type: cell-based, Hepatocyte
T2 sequence (P07308 whole entry): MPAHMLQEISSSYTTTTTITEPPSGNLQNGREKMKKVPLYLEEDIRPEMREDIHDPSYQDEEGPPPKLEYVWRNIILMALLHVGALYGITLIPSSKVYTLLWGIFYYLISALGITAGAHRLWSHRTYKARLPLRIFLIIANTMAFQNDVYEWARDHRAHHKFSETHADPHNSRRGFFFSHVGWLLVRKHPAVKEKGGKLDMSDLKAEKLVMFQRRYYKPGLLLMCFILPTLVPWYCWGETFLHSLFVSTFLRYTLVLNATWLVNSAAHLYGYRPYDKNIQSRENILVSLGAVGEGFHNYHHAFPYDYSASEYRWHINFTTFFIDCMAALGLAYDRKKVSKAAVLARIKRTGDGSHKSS

Acyl-CoA desaturase 1 [3] = molecular target: T2, Acyl-CoA desaturase 1; test: Inhibition of rat SCD1
Mus musculus [4] = test: Acute antidiabetic activity in high fat diet fed C57/BL6 mouse eDIO model assessed as increase in glucose clearance at 100 mg/kg, po administered 1 hr prior to glucose challenge by oGTT assay; assay type: functional
[5] = Plasma concentration in high sucrose/fat free diet fed C57/BL6 mouse at 100 mg/kg, po after 3 hrs; assay type: ADME, organism-based; parameters: dose 100 mg/kg, route oral
[6] = Drug uptake in high sucrose/fat free diet fed C57/BL6 mouse liver at 100 mg/kg, po after 3 hrs; assay type: ADME, organism-based; parameters: dose 100 mg/kg, route oral; details: read-out: Drug uptake
[7] = Drug uptake in high fat diet fed C57/BL6 mouse eDIO model whole blood at 100 mg/kg, po after 3 hrs; assay type: ADME, organism-based; parameters: dose 100 mg/kg, route oral; details: read-out: Drug uptake
Mus musculus [8] = test: Inhibition of SCD activity in high sucrose/fat free diet fed C57/BL6 mouse liver assessed as reduction in conversion of [14C]stearic acid to [14C]oleic acid at 100 mg/kg, po; assay type: functional
Nucleic Acid = test: Ratio of drug uptake in high fat diet fed C57/BL6 mouse eDIO model whole blood to high sucrose/fat free diet fed C57/BL6 mouse plasma; assay type: ADME; details: in vivo
HepG2 = test: Selectivity ratio of IC50 for human SCD1 expressed in human HepG2 cells to IC50 for rat SCD1 in Sprague-Dawley rat hepatocytes; assay type: cell-based

Row | IC50 (Stearoyl-CoA desaturase) [µM] | IC50 (Acyl-CoA desaturase 1 [2]) [nM] | IC50 (Acyl-CoA desaturase 1 [3]) [nM] | Structure (SMILES) | further results
1 | – | – | 11000 | FC(F)(F)c1ccccc1OC1CCN(c2ccc(-c3cncc(-c4nnn[nH]4)c3)nn2)CC1 | –
2 | > 10 | 1890 | 166 | O=C(O)c1cncc(-c2ccc(N3CCC(Oc4ccccc4Cl)CC3)nn2)c1 | –
3 | > 20 | 1300 | 129 | O=C(O)c1cncc(-c2ccc(N3CCC(Oc4ccccc4C(F)(F)F)CC3)nn2)c1 | –
4 | 5.08 | 1000 | 27 | O=C(O)c1cncc(-c2ccc(N3CCC(Oc4ccccc4I)CC3)nn2)c1 | Ratio IC50 (HepG2): 5
5 | 0.128 | 159 | 8 | O=C(O)c1ccc(-c2ccc(N3CCC(Oc4cc(F)ccc4Br)CC3)nn2)nc1 | –
6 | – | – | 8440 | O=C(O)c1cncc(-c2ccc(N3CCC(Oc4ccccc4C(F)(F)F)CC3)cc2)c1 | –
7 | 18.3 | 1640 | 47 | O=C(O)c1cncc(-c2ccc(N3CCC(Oc4ccccc4Br)CC3)nn2)c1 | Ratio IC50 (HepG2): 11
8 | 1.11 | – | 107 | O=C(O)c1cccc(-c2ccc(N3CCC(Oc4ccccc4C(F)(F)F)CC3)nn2)c1 | –
9 | – | – | > 10000 | O=C(O)c1ccc(N2CCC(Oc3ccccc3C(F)(F)F)CC2)nn1 | –
10 | 0.55 | – | 105 | O=C(O)c1ccc(-c2ccc(N3CCC(Oc4ccccc4C(F)(F)F)CC3)nn2)cc1 | –
11 | – | – | 2680 | O=C(O)Cc1ccc(N2CCC(Oc3ccccc3C(F)(F)F)CC2)nn1 | –

The remaining lines, values behind:

Row | Structure (SMILES) | IC50 (Stearoyl-CoA desaturase) [µM] | IC50 (Acyl-CoA desaturase 1 [2]) [nM] | IC50 (Acyl-CoA desaturase 1 [3]) [nM] | further results
12 | O=C(O)c1cncc(-c2cnc(N3CCC(Oc4cc(F)ccc4Br)CC3)cn2)c1 | 6.72 | 1360 | 69 | Ratio [1]: 12
13 | O=C(O)c1cncc(-c2cnc(N3CCC(Oc4cc(F)ccc4Br)CC3)nn2)c1 | 4.47 | 268 | 20 | Ratio [1]: 1.5
14 | O=C(O)c1cncc(-c2ccc(N3CCC(Oc4cc(F)ccc4Br)CC3)cn2)c1 | – | – | 1220 | –
15 | O=C(O)c1cncc(-c2ccc(N3CCC(Oc4c(F)cc(F)cc4Br)CC3)nn2)c1 | – | – | > 20000 | Activity (Mus musculus [4]): inactive; concentration at 3 h [5]: 750 nM; concentration at 3 h [6]: 30.2 µM; concentration at 3 h [7]: 730 nM; inhibition (Mus musculus [8]): inactive; Ratio (Nucleic Acid): < 2
16 | O=C(O)Cc1cncc(-c2ccc(N3CCC(Oc4cc(F)ccc4Br)CC3)nn2)c1 | 0.78 | 75 | 20 | Ratio [1]: 4; Ratio IC50 (HepG2): 10
17 | O=C(O)c1cncc(-c2ccc(N3CCC(Oc4cc(F)ccc4Br)CC3)nn2)n1 | – | – | 772 | –
18 | O=C(O)c1cncc(-c2cnc(N3CCC(Oc4cc(F)ccc4Br)CC3)nc2)c1 | 9.42 | 3050 | 77 | Ratio [1]: 8
19 | O=C(O)c1cncc(-c2ccc(N3CCC(Oc4cc(F)c(F)cc4Br)CC3)nn2)c1 | 8.26 | 563 | 15 | –
20 | O=C(O)c1cncc(-c2ccc(N3CCC(Oc4cc(F)ccc4Br)CC3)nc2)c1 | 2.41 | 1930 | 24 | Ratio [1]: 3
